Read-outs that look alike come from different tables or passages of the source.
Tests used:
[1] = molecular target: human TLR9 (Homo sapiens (Human), UniProt Q9NR96); assay: TLR9 inhibition reporter assay (HEK-Blue SEAP); conditions: read-out: TLR9 IC50;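 note: SEAP driven by an IFN-β minimal promoter with NF-κB and AP-1 sites, read after 22 h, compounds dosed 0.05 nM–50 µM, inhibition scaled between agonist plus DMSO and reference-inhibitor wells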
[2] = molecular target: human TLR7 (Homo sapiens (Human), UniProt Q9NYK1); assay: TLR7 inhibition reporter assay (HEK-Blue SEAP); format: cell-based
[3] = molecular target: human TLR8 (Homo sapiens (Human), UniProt Q9NR97); assay: TLR8 inhibition reporter assay (HEK-Blue SEAP); conditions: read-out: TLR8 IC50;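 note: SEAP driven by IFN-β minimal promoter carrying NF-κB and AP-1 sites, compounds dosed 0.05 nM to 50 µM for 22 h, inhibition scaled between agonist-plus-DMSO and reference-inhibitor wells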
[4] = HEK-Blue cells overexpressing human TLR9, ODN2006 5 nM stimulation, SEAP reporter
[5] = HEK-Blue cells overexpressing human TLR7, gardiquimod 7.5 μM stimulation, SEAP reporter
[6] = HEK-Blue cells overexpressing human TLR8, R848 15.9 μM stimulation, SEAP reporter
[7] = HEK-Blue cells overexpressing human TLR9, SEAP reporter, ODN2006 5 nM
[8] = HEK-Blue cells overexpressing human TLR7, SEAP reporter, gardiquimod 7.5 μM
[9] = HEK-Blue cells overexpressing human TLR8, SEAP reporter, R848 15.9 μM
[10] = HEK-Blue human TLR9 cells, ODN2006 5 nM
[11] = HEK-Blue human TLR7 cells, gardiquimod 7.5 μM
[12] = HEK-Blue human TLR8 cells, R848 15.9 μM

human TLR9, sequence (Q9NR96 26-1032): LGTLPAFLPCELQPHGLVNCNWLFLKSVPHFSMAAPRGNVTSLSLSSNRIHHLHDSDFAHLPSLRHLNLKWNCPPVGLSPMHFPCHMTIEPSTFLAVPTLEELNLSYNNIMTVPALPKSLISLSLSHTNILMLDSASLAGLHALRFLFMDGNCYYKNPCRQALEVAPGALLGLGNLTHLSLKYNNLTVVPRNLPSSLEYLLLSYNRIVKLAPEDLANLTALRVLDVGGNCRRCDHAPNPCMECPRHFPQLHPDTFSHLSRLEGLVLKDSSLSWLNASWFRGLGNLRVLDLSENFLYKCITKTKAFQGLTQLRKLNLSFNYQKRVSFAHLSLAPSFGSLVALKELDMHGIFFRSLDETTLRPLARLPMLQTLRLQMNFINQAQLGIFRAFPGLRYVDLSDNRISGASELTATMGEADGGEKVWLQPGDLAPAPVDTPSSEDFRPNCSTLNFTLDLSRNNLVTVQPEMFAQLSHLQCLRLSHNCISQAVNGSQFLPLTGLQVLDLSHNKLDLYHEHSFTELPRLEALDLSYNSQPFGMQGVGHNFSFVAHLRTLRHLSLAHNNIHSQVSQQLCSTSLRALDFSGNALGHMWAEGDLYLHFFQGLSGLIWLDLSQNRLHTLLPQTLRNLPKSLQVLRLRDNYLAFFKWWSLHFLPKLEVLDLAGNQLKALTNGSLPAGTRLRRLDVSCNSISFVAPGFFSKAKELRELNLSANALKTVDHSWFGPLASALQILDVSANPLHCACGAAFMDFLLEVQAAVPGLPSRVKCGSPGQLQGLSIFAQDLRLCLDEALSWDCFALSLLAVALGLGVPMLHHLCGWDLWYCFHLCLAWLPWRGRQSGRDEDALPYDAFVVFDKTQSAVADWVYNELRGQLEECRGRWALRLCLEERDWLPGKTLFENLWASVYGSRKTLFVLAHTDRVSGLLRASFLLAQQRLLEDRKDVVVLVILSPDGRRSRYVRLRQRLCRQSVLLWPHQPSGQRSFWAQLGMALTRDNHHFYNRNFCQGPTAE
human TLR8, sequence (Q9NR97 27-1041): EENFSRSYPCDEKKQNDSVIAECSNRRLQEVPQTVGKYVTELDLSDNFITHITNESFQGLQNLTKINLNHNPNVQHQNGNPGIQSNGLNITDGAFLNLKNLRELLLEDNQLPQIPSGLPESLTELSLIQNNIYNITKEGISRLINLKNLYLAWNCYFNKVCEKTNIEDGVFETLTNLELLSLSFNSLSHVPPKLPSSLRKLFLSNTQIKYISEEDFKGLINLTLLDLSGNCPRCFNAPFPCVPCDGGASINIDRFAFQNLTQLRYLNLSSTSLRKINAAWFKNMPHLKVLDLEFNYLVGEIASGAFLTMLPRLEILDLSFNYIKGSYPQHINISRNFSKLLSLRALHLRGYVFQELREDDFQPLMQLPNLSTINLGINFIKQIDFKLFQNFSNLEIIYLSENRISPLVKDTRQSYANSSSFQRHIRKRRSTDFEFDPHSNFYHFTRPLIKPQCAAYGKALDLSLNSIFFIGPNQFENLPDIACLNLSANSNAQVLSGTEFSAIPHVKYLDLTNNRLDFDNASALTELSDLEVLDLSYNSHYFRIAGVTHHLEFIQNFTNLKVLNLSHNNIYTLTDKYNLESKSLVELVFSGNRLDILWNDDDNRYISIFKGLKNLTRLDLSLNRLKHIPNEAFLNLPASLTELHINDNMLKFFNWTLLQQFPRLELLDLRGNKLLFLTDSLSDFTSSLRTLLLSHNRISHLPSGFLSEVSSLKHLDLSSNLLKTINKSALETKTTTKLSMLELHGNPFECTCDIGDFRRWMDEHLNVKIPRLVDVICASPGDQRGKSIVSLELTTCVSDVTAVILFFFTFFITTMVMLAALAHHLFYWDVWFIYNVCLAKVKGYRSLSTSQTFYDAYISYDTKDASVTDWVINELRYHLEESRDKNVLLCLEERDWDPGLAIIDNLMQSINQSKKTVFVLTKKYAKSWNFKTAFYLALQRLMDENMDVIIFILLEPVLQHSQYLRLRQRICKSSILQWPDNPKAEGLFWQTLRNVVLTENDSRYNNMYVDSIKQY
human TLR7, sequence (Q9NYK1 27-1049): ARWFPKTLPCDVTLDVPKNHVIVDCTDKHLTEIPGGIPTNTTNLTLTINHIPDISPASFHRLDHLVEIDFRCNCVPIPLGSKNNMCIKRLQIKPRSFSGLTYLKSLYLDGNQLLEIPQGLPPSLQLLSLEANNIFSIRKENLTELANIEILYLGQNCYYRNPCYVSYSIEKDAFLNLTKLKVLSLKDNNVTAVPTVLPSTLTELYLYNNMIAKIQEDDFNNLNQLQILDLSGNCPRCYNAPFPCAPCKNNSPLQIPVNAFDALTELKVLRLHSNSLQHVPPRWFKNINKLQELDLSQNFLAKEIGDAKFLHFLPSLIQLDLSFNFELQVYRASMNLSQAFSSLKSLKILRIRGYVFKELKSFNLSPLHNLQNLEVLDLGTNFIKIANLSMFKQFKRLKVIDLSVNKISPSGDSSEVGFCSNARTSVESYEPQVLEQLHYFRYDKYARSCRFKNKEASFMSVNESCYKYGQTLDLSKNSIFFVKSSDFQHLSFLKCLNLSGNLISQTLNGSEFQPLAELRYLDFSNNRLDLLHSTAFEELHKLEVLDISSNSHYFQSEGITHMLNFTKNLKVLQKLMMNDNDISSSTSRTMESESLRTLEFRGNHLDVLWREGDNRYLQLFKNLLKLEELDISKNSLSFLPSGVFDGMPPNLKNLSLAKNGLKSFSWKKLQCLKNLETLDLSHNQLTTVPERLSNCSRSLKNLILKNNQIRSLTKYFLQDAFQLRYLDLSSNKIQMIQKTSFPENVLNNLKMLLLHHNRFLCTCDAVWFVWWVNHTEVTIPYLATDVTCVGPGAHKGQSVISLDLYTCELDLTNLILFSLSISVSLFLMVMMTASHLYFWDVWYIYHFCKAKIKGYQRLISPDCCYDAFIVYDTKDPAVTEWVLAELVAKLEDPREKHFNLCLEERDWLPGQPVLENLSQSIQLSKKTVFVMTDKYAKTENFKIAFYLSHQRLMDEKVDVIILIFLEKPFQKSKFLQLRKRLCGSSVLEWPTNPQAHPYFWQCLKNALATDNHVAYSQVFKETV

SMILES | IC50 [1, 4] [nM] | IC50 [2, 5] [nM] | IC50 [3, 6] [nM] | IC50 [1, 7] [nM] | IC50 [2, 8] [nM] | IC50 [3, 9] [nM] | IC50 [1, 10] [nM] | IC50 [2, 11] [nM] | IC50 [3, 12] [nM]
COc1cc(-c2[nH]c3ccc(N4CCN(CC5(C)COC5)CC4)nc3c2C(C)C)cn2ncnc12 [Example 102] | > 50000 | 12 | 5.1 |  |  |  |  |  | 
COc1cc(-c2[nH]c3ccc(C4CCN(CC(N)=O)CC4)nc3c2C(C)C)cn2ncnc12 [Example 558] |  |  |  | 3430 | 1.2 | 5.6 |  |  | 
Cc1c(-c2[nH]c3ccc(C4CCC(NCC5CCCCS5(=O)=O)CC4)nc3c2C(C)C)cn2ncnc2c1C (stereo not drawn) [Example 471] |  |  |  | 4710 | 2.8 | 3.2 |  |  | 
Cc1c(-c2[nH]c3ccc(N4C[C@H](C)NC[C@H]4C)nc3c2C(C)C)cn2ncnc2c1C [Example 990] |  |  |  |  |  |  | 6020 | 0.8 | 4
Cc1cc(-c2[nH]c3ccc(C4CCNCC4)nc3c2C(C)C)cn2cnnc12 [Example 518] |  |  |  | 721 | 1.6 | 32 |  |  | 
Cc1c(-c2[nH]c3ccc(N4CC5CCC(C4)N5)nc3c2C(C)C)cn2ncnc2c1C [Example 973] |  |  |  |  |  |  | 15800 | 6.7 | 1.7
COc1ncc(CN(C)C2CCC(c3ccc4[nH]c(-c5cn6ncnc6c(C)c5C)c(C(C)C)c4n3)CC2)cn1 (stereo not drawn) [Example 405] |  |  |  | 1420 | 3.6 | 2.5 |  |  | 
Cc1c(-c2[nH]c3ccc(N4C[C@@H](C)N(C(=O)CCN5CCC6(COC6)C5)C[C@@H]4C)nc3c2C(C)C)cn2ncnc2c1C [Example 961] |  |  |  |  |  |  | 8340 | 0.35 | 0.8
Cc1c(-c2[nH]c3ccc(N4CCN(CCCS(C)(=O)=O)CC4)nc3c2C(C)C)cn2ncnc2c1C [Example 147] | 18700 | 5 | 0.26 |  |  |  |  |  | 
Cc1c(-c2[nH]c3ccc(N4[C@@H]5CC[C@H]4CN(C(=O)CN4CC6(COC6)C4)C5)nc3c2C(C)C)cn2ncnc2c1C [Example 920] |  |  |  |  |  |  | 12100 | 2.6 | 5.9
Cc1c(-c2[nH]c3ccc(C4CCC(N5CCC6(COC6)C5)CC4)nc3c2C(C)C)cn2ncnc2c1C (stereo not drawn) [Example 1060] |  |  |  |  |  |  | 2600 | 0.5 | 0.5
COc1cc(-c2[nH]c3ccc(OCC4CCN(C)CC4)nc3c2C(C)C)cn2ncnc12 [Example 590, 6-(3-isopropyl-5-((1-methylpiperidin-4-yl)methoxy)-1H-pyrrolo[3,2-b]pyridin-2-yl)-8-methoxy-[1,2,4]triazolo[1,5-a]pyridine] |  |  |  | 3550 | 3 | 4.7 |  |  | 
CNC1CCN(c2ccc3[nH]c(-c4cn5ncnc5c(C)c4C)c(C(C)C)c3n2)CC1 [Example 995] |  |  |  |  |  |  | 7020 | 0.56 | 0.48
Cc1c(-c2[nH]c3ccc(N4C[C@@H](C)N(C(=O)CN5CCCC5)[C@H](C)C4)nc3c2C(C)C)cn2ncnc2c1C [Example 928] |  |  |  |  |  |  | 3640 | 1.5 | 6.9
Cc1c(-c2[nH]c3ccc(C4CCC(NC5CCOCC5)CC4)nc3c2C(C)C)cn2ncnc2c1C (stereo not drawn) [Example 453] |  |  |  | 1440 | 4 | 3.3 |  |  | 
Cc1cnc(CN(C)C2CCC(c3ccc4[nH]c(-c5cn6ncnc6c(C)c5C)c(C(C)C)c4n3)CC2)cn1 (stereo not drawn) [Example 415] |  |  |  | 1240 | 2.5 | 3.5 |  |  | 
COc1cc(-c2[nH]c3ccc(N4CCN(CC(C)C)CC4)nc3c2C(C)C)cn2ncnc12 [Example 109] | 8010 | 3.6 | 1.3 |  |  |  |  |  | 
COc1cc(-c2[nH]c3cc(C)c(C4CCC(N5CC6(COC6)C5)CC4)nc3c2C(C)C)cn2ncnc12 (stereo not drawn) [Example 319] | 1690 | 0.44 | 4.1 |  |  |  |  |  | 
Cc1c(-c2[nH]c3ccc(C4CCC(N5CC(F)(F)C5)CC4)nc3c2C(C)C)cn2ncnc2c1C (stereo not drawn) [Example 370] | > 50000 | 8.6 | 23 |  |  |  |  |  | 
COc1cc(-c2[nH]c3cc(F)c(C4CCC(NCC5(C)COC5)CC4)nc3c2C(C)C)cn2ncnc12 (stereo not drawn) [Example 342] | 1910 | 0.98 | 3.9 |  |  |  |  |  | 
COc1cc(-c2[nH]c3cc(F)c(C4CCC(N5CC6(COC6)C5)CC4)nc3c2C(C)C)cn2ncnc12 (stereo not drawn) [Example 344] | 2790 | 0.72 | 4.8 |  |  |  |  |  | 
Cc1c(-c2[nH]c3ccc(N4CCN(C(=O)CN(C)C)C[C@H]4C)nc3c2C(C)C)cn2ncnc2c1C [Example 808] |  |  |  |  |  |  | 8950 | 0.19 | 1.4

Source: patent US10544143B2, “4-azaindole compounds” (BRISTOL-MYERS SQUIBB COMPANY, priority 2017, dated 2020)
